This is an account of results in ChEMBL document CHEMBL5724914, “Linking interpersonal differences in gut microbiota composition and drug biotransformation activity” (2024).

Data set [1] in a line: The drug is tested on WLS-310 corresponding to human gut metagenome with ENA study accession number: PRJEB37062 and ENA sample accession number: ERS12561785 for biotransformation under anaerobic condition. The drug concentrations were measured over 9 timepoints collected between 0 and 24 hours of incubation by liquid-chromatography-coupled mass spectrometry (LC–MS). As to conditions: 2 µM.

A short description of data set [2]: The drug is tested on Z-006 corresponding to mouse gut metagenome with ENA study accession number: PRJEB37062 and ENA sample accession number: ERS12561806 for biotransformation under anaerobic condition. The drug concentrations were measured over 9 timepoints collected between 0 and 24 hours of incubation by liquid-chromatography-coupled mass spectrometry (LC–MS). As to conditions: 2 µM.

For data set [3] the following is noted: human gut metagenome, 24 h, 2 µM.
Data set [4] can be described thus: The drug is tested on Z-003 corresponding to pig gut metagenome with ENA study accession number: PRJEB37062 and ENA sample accession number: ERS12561803 for biotransformation under anaerobic condition. The drug concentrations were measured over 9 timepoints collected between 0 and 24 hours of incubation by liquid-chromatography-coupled mass spectrometry (LC–MS). As to conditions: 2 µM.

For data set [5] the following is noted: human gut metagenome, 24 h, 2 µM. This is another data set of the same source.
For data set [6] the following is noted: human gut metagenome, 24 h, 2 µM. The source holds these as a separate data set.
The nature of data set [7]: The drug is tested on Z-012 corresponding to metagenome with ENA study accession number: PRJEB37062 and ENA sample accession number: ERS12561812 for biotransformation under anaerobic condition. The drug concentrations were measured over 9 timepoints collected between 0 and 24 hours of incubation by liquid-chromatography-coupled mass spectrometry (LC–MS). As to conditions: 2 µM.

Data set [8] in a line: The drug is tested on WLS-240 corresponding to human gut metagenome with ENA study accession number: PRJEB37062 and ENA sample accession number: ERS12561773 for biotransformation under anaerobic condition. The drug concentrations were measured over 9 timepoints collected between 0 and 24 hours of incubation by liquid-chromatography-coupled mass spectrometry (LC–MS). The note with it: 2 µM.

For data set [9] the following is noted: human gut metagenome, 24 h, 2 µM. This is another data set of the same source.
The conditions of data set [10]: human gut metagenome, 24 h, 2 µM. This is another data set of the same source.
The conditions of data set [11]: human gut metagenome, 24 h, 2 µM. This is another data set of the same source.
A short description of data set [12]: The drug is tested on Z-028 corresponding to mouse gut metagenome with ENA study accession number: PRJEB37062 and ENA sample accession number: ERS12561827 for biotransformation under anaerobic condition. The drug concentrations were measured over 9 timepoints collected between 0 and 24 hours of incubation by liquid-chromatography-coupled mass spectrometry (LC–MS). The note with it: 2 µM.

For data set [13] the following is noted: human gut metagenome, 24 h, 2 µM. This is another data set of the same source.
The conditions of data set [14]: human gut metagenome, 24 h, 2 µM. This is another data set of the same source.
For data set [15] the following is noted: human gut metagenome, 24 h, 2 µM. This is another data set of the same source.
For data set [16] the following is noted: human gut metagenome, 24 h, 2 µM. This is another data set of the same source.
A short description of data set [17]: The drug is tested on Z-026 corresponding to metagenome with ENA study accession number: PRJEB37062 and ENA sample accession number: ERS12561825 for biotransformation under anaerobic condition. The drug concentrations were measured over 9 timepoints collected between 0 and 24 hours of incubation by liquid-chromatography-coupled mass spectrometry (LC–MS). The note with it: 2 µM.

The conditions of data set [18]: human gut metagenome, 24 h, 2 µM. This is another data set of the same source.
For data set [19] the following is noted: human gut metagenome, 24 h, 2 µM. This is another data set of the same source.
A short description of data set [20]: The drug is tested on Z-017 corresponding to mouse gut metagenome with ENA study accession number: PRJEB37062 and ENA sample accession number: ERS12561816 for biotransformation under anaerobic condition. The drug concentrations were measured over 9 timepoints collected between 0 and 24 hours of incubation by liquid-chromatography-coupled mass spectrometry (LC–MS). As to conditions: 2 µM.
Note: call rule not given here.

In the case of `O=C(NCc1ccccc1)OCCO` [BURAMATE], the “Bacterial Biotransformation” value in data set [1], in data set [2], in data set [3], in data set [4], in data set [5] and in data set [6] was “Compound NOT metabolized” in each case. Besides, the “Bacterial Biotransformation” value in data set [7], in data set [8], in data set [9], in data set [10], in data set [11] and in data set [12] was “Compound NOT metabolized” each time. The “Bacterial Biotransformation” value in [13], in data set [14], in data set [15], in data set [16], in [17] and in data set [18] was “Compound NOT metabolized” in each case. For the same molecule, in data set [19], the “Bacterial Biotransformation” value was “Compound NOT metabolized”.
For `c1ccc([C@H]2CN3CCSC3=N2)cc1` [LEVAMISOLE], the “Bacterial Biotransformation” value was “Compound metabolized” in data set [1]; “Compound metabolized” in data set [2]; “Compound metabolized” in [3]; “Compound NOT metabolized” in data set [5]; “Compound metabolized” in [6]; “Compound NOT metabolized” in [7]. The “Bacterial Biotransformation” value in data set [8] is on record as “Compound metabolized”; in [9], “Compound metabolized”; in data set [10] it was “Compound metabolized”; in [11], “Compound metabolized”; in [20] it was “Compound NOT metabolized”; in data set [12] it was “Compound metabolized”. Further, the “Bacterial Biotransformation” value in [14], in data set [15], in data set [16], in data set [18] and in data set [19] was “Compound metabolized” each time.
For `C#C[C@]1(O)CC[C@H]2[C@@H]3CCC4=CC(=O)CC[C@@H]4[C@H]3CC[C@@]21CC` [LEVONORGESTREL], the “Bacterial Biotransformation” value in data set [1], in data set [2], in [3], in data set [5], in data set [6] and in data set [9] was “Compound metabolized” each time. The “Bacterial Biotransformation” value in data set [10], in [11], in data set [20], in data set [12], in data set [13] and in [14] was “Compound metabolized” each time. In addition, the “Bacterial Biotransformation” value in data set [15], in data set [16], in data set [17], in data set [18] and in data set [19] was “Compound metabolized” throughout.
